Earlier results on one molecule are cited in patent US5973199A, “Hydrosoluble organic salts of creatine” (priority 1994, dated 1999).

Experiment in series [1]: not given
The source holds these as a separate data set.

In the case of `CN(CC(=O)O)C(=N)N` [creatine, N-(aminoiminomethyl)-N-methylglycine], the “tolerability of high doses” value (high doses of 5-10 g (mean body weights of 70 kg)) is reported as “well tolerated”. The toxicity entry (in vivo) is “lack of toxicity”. For the same molecule, the “creatine half-life in plasma” value in series [1] is 1 to 1.5 h.
